In ChEMBL document CHEMBL1944551, “An integrated computational workflow for efficient and quantitative modeling of renin inhibitors” (Bioorg Med Chem, 2012):
pIC50: −log10 of the molar value.

What was measured:
[1] = physchem; conditions: octanol/buffer
[2] = biological target: T1, Renin (Homo sapiens, UniProt P00797)
T1 sequence (P00797 whole entry): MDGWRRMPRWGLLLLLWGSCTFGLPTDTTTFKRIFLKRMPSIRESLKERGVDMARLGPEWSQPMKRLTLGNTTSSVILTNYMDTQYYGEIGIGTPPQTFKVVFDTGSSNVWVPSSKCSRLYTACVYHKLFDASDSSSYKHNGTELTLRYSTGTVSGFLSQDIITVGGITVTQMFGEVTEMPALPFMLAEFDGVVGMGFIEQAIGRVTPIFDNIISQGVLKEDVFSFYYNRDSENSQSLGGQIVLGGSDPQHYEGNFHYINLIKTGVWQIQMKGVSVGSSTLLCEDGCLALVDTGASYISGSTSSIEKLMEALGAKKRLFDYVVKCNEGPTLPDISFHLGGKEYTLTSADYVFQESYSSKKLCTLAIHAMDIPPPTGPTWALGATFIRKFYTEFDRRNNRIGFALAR
Description: Inhibition of human recombinant renin assessed as decrease in release of AngI from tetradecapeptide after 3 hrs by EIA

| logP [1] | pIC50 [2] | Structure (SMILES) |
| --- | --- | --- |
| 5.45 | 7.80 | Cc1ccc(F)cc1Oc1c(C(=O)N2CCNCC2)c2ccc(O)cc2n1-c1ccc(F)cc1 |
| 5.71 | 6.27 | O=C(c1c(Oc2ccccc2)n(-c2ccccc2)c2cc(Cl)ccc12)N1CCNCC1 |
| 5.69 | 7.99 | Cc1cccc(CN(C(=O)[C@H]2CNCC(=O)N2c2ccc(OCCOc3c(Cl)cc(F)cc3Cl)cc2)C2CC2)c1C |
| 7.78 | 6.37 | Cc1c(F)cccc1Cc1cc2c(cc1O)c(C(=O)N1CCNCC1)c(Cc1cccc(F)c1C)n2-c1ccccc1 |
| 5.54 | 8.11 | Cc1cc(Cl)c(OCCOc2ccc(N3C(=O)CNC[C@@H]3C(=O)N(Cc3cccc(C)c3C)C3CC3)cc2)cc1C |

| Structure (SMILES) | logP [1] | pIC50 [2] |
| --- | --- | --- |
| Cc1ccc(F)cc1Oc1c(C(=O)N2CCNCC2)c2ccccc2n1[C@H]1C=CCCC1 | 5.3 | 8.19 |
